Data as given in patent publication US12435046B2, “Alkynyl quinazoline compounds” (Black Diamond Therapeutics, Inc., priority 2019, dated 2025).

Key:
Format in all cases: cell-based
Conditions in all cases: Table A; BaF3 cells, 3 days
[1] = target: T1, EGFR wt (Homo sapiens, UniProt P00533); assay: BaF3 cell proliferation assay (CellTiterGlo), EGFR wt
T1 construct: expressed in transfected cells; host or cells: BaF3 (murine pro-B) cells, retroviral transduction with pMXs-IRES-Blasticidin
Procedure: (§1) Retroviral Production: EGFR mutants were subcloned into pMXs-IRES-Blasticidin (RTV-016, Cell Biolabs, San Diego, CA). Retroviral expression vector retrovirus was produced by transient transfection of HEK 293T cells with the retroviral EGFR mutant expression vector pMXs-IRES-Blasticidin (RTV-016, Cell Biolabs), pCMV-Gag-Pol vector and pCMV-VSV-G-Envelope vector. Briefly, HEK 293T/17 cells were plated in 100 mm collagen coated plate (354450, Corning Life Sciences, Tewksbury, MA) (4×10^5 per plate) and incubated overnight. The next day, retroviral plasmids (3 ng of EGFR mutant, 1.0 ng of pCMV-Gag-Pol and 0.5 ng pCMV-VSV-G) were mixed in 500 n1 of Optimem (31985, Life Technologies). The mixture was incubated at room temperature for 5 min and then added to Optimem containing transfection reagent Lipofectamine (11668, Invitrogen) and incubated for 20 minutes. Mixture was then added dropwise to HEK 293T cells. The next day the medium was replaced with fresh culture medium and retrovirus was harvested @ 24 and 48 hrs.
(§2) Generation of EGFR mutant stable cell lines: BaF3 cells (1.5E5 cells) were infected with 1 ml of viral supernatant supplemented with 8 ng/ml polybrene by centrifuging for 30 min at 1000 rpm. Cells were placed in a 37° C. incubator overnight. Cells were then spun for 5 minutes to pellet the cells. Supernatant was removed and cells re-infected a fresh 1 ml of viral supernatant supplemented with 8 ng/ml polybrene by centrifuging for 30 min at 1000 rpm. Cells were placed in 37° C. incubator overnight. Cells were then maintained in RPMI containing 10% Heat Inactivated FBS, 2% L-glutamine containing 10 ng/ml IL-3. After 48 hours cells were selected for retroviral infection in 10 […] for one week. Blasticidin resistant populations were washed twice in phosphate buffered saline before plating in media lacking IL-3 to select for IL-3 independent growth.
(§3) Assay for cell proliferation: BaF3 cell lines were resuspended at 1.3E5 c/ml in RPMI containing 10% Heat Inactivated FBS, 2% L-glutamine and 1% Pen/Strep and dispensed in triplicate (17.5E4 c/well) into 96 well plates. To determine the effect of drug on cell proliferation, cells incubated for 3 days in the presence of vehicle control or test drug at varying concentrations. Inhibition of cell growth was determined by luminescent quantification of intracellular ATP content using CellTiterGlo (Promega), according to the protocol provided by the manufacturer. Comparison of cell number on day 0 versus 72 hours post drug treatment was used to plot dose-response curves. The number of viable cells was determined and normalized to vehicle-treated controls. Inhibition of proliferation, relative to vehicle-treated controls was expressed as a fraction of 1 and graphed using PRISM® software (Graphpad Software, San Diego, CA). EC50 values were determined with the same application.

[2] = target: T2, EGFR V3 (Homo sapiens, UniProt P00533, DELINS30-297G); assay: BaF3 cell proliferation assay (CellTiterGlo), EGFR V3
T2 construct: expressed in transfected cells; host or cells: BaF3 (murine pro-B) cells, retroviral transduction with pMXs-IRES-Blasticidin
Procedure: as §1, §2, §3

[3] = target: T3, HER2 S310F (Homo sapiens, UniProt P04626, S310F); assay: BaF3 cell proliferation assay (CellTiterGlo), HER2 S310F
T3 construct: expressed in transfected cells; host or cells: BaF3 (murine pro-B) cells

[4] = target: T4, HER2 YVMA (Homo sapiens, UniProt P04626, INS775YVMA); assay: BaF3 cell proliferation assay (CellTiterGlo), HER2 YVMA
T4 construct: expressed in transfected cells; host or cells: BaF3 (murine pro-B) cells
T4 sequence (P04626 with tags, fused parts or gaps INS775YVMA): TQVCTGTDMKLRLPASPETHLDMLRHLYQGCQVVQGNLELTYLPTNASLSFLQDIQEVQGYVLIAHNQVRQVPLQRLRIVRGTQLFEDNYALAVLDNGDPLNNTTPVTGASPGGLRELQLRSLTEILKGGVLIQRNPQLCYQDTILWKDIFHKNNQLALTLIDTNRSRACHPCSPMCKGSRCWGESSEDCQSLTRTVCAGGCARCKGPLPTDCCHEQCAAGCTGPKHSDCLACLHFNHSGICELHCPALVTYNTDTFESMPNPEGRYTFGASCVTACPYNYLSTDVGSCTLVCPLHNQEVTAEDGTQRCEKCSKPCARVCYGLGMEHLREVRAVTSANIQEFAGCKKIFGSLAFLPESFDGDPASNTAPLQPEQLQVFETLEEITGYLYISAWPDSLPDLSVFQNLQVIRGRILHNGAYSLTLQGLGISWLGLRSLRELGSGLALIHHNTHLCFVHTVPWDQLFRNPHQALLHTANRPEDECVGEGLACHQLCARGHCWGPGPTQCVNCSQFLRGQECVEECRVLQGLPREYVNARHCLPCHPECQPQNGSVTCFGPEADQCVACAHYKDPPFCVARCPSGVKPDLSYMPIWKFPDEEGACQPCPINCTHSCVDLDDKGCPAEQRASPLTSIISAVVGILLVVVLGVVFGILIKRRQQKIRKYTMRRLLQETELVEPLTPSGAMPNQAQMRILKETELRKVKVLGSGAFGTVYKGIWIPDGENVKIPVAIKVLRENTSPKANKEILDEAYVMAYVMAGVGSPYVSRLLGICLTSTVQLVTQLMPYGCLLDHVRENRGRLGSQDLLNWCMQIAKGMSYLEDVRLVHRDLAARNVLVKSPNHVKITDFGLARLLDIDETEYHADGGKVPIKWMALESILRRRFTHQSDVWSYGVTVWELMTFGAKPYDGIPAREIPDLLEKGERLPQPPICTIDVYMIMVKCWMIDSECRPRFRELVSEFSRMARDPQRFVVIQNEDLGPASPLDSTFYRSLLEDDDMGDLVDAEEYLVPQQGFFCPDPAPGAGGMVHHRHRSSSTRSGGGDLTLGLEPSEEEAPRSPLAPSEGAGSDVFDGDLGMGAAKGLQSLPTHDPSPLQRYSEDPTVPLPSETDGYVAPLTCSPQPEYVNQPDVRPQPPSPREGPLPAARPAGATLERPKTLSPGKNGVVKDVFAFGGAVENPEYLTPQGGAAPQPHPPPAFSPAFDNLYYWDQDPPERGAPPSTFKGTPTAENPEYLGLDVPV

T1 sequence (P00533 25-1210): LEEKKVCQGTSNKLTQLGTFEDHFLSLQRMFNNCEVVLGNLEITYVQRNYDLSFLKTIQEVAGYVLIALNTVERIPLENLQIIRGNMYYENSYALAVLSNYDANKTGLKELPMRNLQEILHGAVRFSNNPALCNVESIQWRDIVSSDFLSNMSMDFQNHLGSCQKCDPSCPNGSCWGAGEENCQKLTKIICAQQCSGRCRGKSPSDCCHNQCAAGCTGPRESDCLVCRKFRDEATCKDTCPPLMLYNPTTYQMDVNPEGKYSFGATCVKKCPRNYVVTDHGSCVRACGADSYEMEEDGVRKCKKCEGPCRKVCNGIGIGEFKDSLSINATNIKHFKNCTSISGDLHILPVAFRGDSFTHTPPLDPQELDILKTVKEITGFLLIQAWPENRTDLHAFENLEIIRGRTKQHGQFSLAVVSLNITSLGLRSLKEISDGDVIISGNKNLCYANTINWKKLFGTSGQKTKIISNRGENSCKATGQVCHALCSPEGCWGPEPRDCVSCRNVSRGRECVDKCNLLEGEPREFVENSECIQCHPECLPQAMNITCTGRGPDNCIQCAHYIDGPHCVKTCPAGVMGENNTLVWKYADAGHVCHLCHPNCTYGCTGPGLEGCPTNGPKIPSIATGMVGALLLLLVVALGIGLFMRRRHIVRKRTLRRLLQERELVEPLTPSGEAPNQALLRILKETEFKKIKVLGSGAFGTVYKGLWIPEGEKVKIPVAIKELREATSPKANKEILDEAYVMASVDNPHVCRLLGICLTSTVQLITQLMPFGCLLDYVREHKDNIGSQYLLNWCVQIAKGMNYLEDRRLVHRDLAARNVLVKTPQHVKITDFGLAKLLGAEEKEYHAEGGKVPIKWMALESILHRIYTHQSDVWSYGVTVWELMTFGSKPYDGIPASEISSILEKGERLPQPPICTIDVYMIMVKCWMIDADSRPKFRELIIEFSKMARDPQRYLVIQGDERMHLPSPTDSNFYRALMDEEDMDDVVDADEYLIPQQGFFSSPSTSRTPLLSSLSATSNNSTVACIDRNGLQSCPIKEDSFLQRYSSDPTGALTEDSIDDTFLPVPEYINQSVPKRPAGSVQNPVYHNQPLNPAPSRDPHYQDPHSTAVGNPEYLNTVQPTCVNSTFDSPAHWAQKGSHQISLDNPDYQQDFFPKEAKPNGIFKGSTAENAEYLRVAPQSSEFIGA
T2 sequence (P00533 with tags, fused parts or gaps DELINS30-297G): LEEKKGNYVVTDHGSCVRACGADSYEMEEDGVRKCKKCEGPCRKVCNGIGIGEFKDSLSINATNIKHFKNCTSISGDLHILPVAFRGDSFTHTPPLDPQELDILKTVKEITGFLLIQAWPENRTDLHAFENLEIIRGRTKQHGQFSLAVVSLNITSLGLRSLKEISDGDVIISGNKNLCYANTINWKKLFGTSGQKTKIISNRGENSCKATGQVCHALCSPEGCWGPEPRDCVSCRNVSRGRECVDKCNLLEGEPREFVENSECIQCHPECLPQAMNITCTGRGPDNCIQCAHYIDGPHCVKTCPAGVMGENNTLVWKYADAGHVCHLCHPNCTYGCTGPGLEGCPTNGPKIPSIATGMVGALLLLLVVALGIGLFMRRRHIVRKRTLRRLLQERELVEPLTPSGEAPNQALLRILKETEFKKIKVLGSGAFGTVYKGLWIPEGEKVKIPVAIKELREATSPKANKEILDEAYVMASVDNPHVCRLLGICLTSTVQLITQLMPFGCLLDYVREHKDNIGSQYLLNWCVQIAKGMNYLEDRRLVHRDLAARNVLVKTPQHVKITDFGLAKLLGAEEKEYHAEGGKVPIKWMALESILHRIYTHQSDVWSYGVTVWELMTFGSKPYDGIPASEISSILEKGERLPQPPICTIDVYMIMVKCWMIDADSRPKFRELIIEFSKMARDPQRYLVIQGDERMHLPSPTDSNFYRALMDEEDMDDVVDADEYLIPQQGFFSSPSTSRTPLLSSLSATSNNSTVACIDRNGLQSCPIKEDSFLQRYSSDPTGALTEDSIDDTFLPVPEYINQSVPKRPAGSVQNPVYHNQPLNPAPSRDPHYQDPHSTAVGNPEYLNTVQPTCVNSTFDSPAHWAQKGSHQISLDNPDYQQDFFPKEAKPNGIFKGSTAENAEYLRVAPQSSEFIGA
T3 sequence (P04626 23-1255 S310F): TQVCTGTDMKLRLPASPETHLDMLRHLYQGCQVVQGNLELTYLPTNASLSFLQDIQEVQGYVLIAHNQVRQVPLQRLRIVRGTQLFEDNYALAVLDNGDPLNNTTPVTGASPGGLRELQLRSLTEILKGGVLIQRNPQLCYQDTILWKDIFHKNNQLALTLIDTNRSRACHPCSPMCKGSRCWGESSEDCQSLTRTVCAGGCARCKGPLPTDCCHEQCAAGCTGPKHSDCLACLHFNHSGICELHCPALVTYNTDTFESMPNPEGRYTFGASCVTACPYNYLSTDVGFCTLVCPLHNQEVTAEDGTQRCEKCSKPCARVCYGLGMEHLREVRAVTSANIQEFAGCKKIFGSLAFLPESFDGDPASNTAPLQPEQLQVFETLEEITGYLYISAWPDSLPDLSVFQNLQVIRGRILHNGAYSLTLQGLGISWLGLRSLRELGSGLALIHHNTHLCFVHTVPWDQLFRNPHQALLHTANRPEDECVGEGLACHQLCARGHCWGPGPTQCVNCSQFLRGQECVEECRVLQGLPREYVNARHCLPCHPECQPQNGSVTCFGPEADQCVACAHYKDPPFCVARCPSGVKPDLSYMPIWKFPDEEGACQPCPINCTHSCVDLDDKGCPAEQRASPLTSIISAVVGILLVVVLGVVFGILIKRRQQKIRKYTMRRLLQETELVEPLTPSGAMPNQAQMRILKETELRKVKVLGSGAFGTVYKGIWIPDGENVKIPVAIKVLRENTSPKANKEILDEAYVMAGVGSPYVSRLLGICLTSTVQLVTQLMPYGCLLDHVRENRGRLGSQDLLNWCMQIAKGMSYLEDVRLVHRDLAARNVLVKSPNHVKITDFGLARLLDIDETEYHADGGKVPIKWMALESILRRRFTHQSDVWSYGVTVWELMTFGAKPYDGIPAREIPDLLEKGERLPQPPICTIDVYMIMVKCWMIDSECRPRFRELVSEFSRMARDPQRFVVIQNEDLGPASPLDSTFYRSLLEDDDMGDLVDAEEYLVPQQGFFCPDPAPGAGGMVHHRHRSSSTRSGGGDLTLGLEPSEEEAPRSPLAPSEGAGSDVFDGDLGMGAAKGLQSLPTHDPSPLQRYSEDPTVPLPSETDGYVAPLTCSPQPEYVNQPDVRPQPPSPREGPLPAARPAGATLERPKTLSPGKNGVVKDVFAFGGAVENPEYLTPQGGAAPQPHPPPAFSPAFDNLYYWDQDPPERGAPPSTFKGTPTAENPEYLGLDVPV

Row | Compound | IC50 [1] | IC50 [2] | IC50 [3] | IC50 [4]
1 | C=CC(=O)Nc1cc2c(Nc3ccc(F)c(Cl)c3F)ncnc2cc1C#CC1(C)CCN(C)C1 (stereo not shown) [Compound 8, N-(4-((3-chloro-2,4-difluorophenyl)amino)-7-((1,3-dimethylpyrrolidin-3-yl)ethynyl)-quinazolin-6-yl)acrylamide] | ≤ 50 nM | ≤ 50 nM | 50 to 100 nM | 100 to 500 nM
2 | C=CC(=O)Nc1cc2c(Nc3cccc(Cl)c3F)ncnc2cc1C#CC1(C)CCN(C)CC1 [Compound 4, N-(4-((3-chloro-2-fluorophenyl)amino)-7-((1,4-dimethylpiperidin-4-yl)ethynyl)quinazolin-6-yl)acrylamide] | 50 to 100 nM | ≤ 50 nM | 100 to 500 nM | 100 to 500 nM
3 | C=CC(=O)Nc1cc2c(Nc3ccc(Cl)c(Cl)c3F)ncnc2cc1C#CC1(C)CCOC1 (stereo not shown) [Compound 63, N-(4-((3,4-dichloro-2-fluorophenyl)amino)-7-((3-methyltetrahydrofuran-3-yl)ethynyl)quinazolin-6-yl)acrylamide] | 100 to 500 nM | ≤ 50 nM | 100 to 500 nM | > 500 nM
4 | C=CC(=O)Nc1cc2c(Nc3ccc(O)c(Cl)c3)ncnc2cc1C#C[C@@H]1[C@H]2CN(C)C[C@@H]12 [Compound 73, N-(4-((3-chloro-4-hydroxyphenyl)amino)-7-(((1R,5S,6s)-3-methyl-3-azabicyclo[3.1.0]hexan-6-yl)ethynyl)quinazolin-6-yl)acrylamide] | 50 to 100 nM | ≤ 50 nM | ≤ 50 nM | 100 to 500 nM
5 | C=CC(=O)Nc1cc2c(Nc3ccc(Cl)c(Cl)c3F)ncnc2cc1C#CC1C2COCC12 (stereo not shown) [Compound No. 80, N-(7-(3-oxabicyclo[3.1.0]hexan-6-ylethynyl)-4-((3,4-dichloro-2-fluorophenyl)amino)quinazolin-6-yl)acrylamide] | 50 to 100 nM | ≤ 50 nM | 50 to 100 nM | 100 to 500 nM
6 | CN1C[C@H]2C[C@@]2(C#Cc2cc3ncnc(Nc4cccc(Cl)c4F)c3cc2NC(=O)/C=C/CN2CCCC(C(=O)O)C2)C1 (stereo partly drawn) [Compound 19, 1-[(E)-4-[[4-(3-chloro-2-fluoro-anilino)-7-[2-[(1R,5S)-3-methyl-3-azabicyclo[3.1.0]hexan-1-yl]ethynyl]quinazolin-6-yl]amino]-4-oxo-but-2-enyl]piperidine-3-carboxylic acid] | 100 to 500 nM | > 500 nM | 50 to 100 nM | > 500 nM
7 | C=CC(=O)Nc1cc2c(Nc3ccc(OCc4ccccn4)c(Cl)c3)ncnc2cc1C#C[C@]1(C)CCN(C)C1 [Compound 13, (S)—N-(4-((3-chloro-4-(pyridin-2-ylmethoxy)phenyl)amino)-7-((1,3-dimethylpyrrolidin-3-yl)ethynyl)quinazolin-6-yl)acrylamide] | 100 to 500 nM | ≤ 50 nM | ≤ 50 nM | ≤ 50 nM
8 | C=C(C)C(=O)Nc1cc2c(Nc3cccc(Cl)c3F)ncnc2cc1C#C[C@@]1(C)CCN(C)C1 [Compound 25, (R)—N-(4-((3-chloro-2-fluorophenyl)amino)-7-((1,3-dimethylpyrrolidin-3-yl)ethynyl)quinazolin-6-yl)methacrylamide] | 100 to 500 nM | > 500 nM | > 500 nM | > 500 nM
9 | C=CC(=O)Nc1cc2c(Nc3cccc(Cl)c3F)ncnc2cc1C#CC1(C)CCN(CC(F)(F)F)C1 (stereo not shown) [Compound 68, N-(4-((3-chloro-2-fluorophenyl)amino)-7-((3-methyl-1-(2,2,2-trifluoroethyl)-pyrrolidin-3-yl)ethynyl)quinazolin-6-yl)acrylamide] | > 500 nM | 100 to 500 nM | > 500 nM | > 500 nM
10 | C=CC(=O)Nc1cc2c(Nc3cc(Cl)ccc3F)ncnc2cc1C#C[C@@H]1[C@H]2CN(C)C[C@@H]12 [Compound 75, N-(4-((5-chloro-2-fluorophenyl)amino)-7-(((1R,5S,6s)-3-methyl-3-azabicyclo[3.1.0]hexan-6-yl)ethynyl)quinazolin-6-yl)acrylamide] | 100 to 500 nM | ≤ 50 nM | 100 to 500 nM | > 500 nM
11 | C=CC(=O)Nc1cc2c(Nc3cccc(Cl)c3F)ncnc2cc1C#CC1(C(F)(F)F)CCN(C)C1 (stereo not shown) [Compound 62, N-(4-((3-chloro-2-fluorophenyl)amino)-7-((1-methyl-3-(trifluoromethyl)pyrrolidin-3-yl)ethynyl)quinazolin-6-yl)acrylamide] | > 500 nM | 100 to 500 nM | 100 to 500 nM | > 500 nM
12 | C=CC(=O)Nc1cc2c(Nc3cccc(Cl)c3F)ncnc2cc1C#CC1(OC)CCN(C)C1 (stereo not shown) [Compound 52, N-(4-((3-chloro-2-fluorophenyl)amino)-7-((3-methoxy-1-methylpyrrolidin-3-yl)ethynyl)quinazolin-6-yl)acrylamide] | 100 to 500 nM | ≤ 50 nM | 50 to 100 nM | 100 to 500 nM
13 | CNC(=O)Nc1cc2c(Nc3cccc(Cl)c3F)ncnc2cc1C#CC1(C)CCN(C)C1 (stereo not shown) [Compound 57, 1-(4-((3-chloro-2-fluorophenyl)amino)-7-((1,3-dimethylpyrrolidin-3-yl)ethynyl)quinazolin-6-yl)-3-methylurea] | ≤ 50 nM | > 500 nM | > 500 nM | > 500 nM
14 | COC/C=C/C(=O)Nc1cc2c(Nc3cccc(Cl)c3F)ncnc2cc1C#C[C@@]12C[C@@H]1CN(C)C2 [Compound 21, (E)-N-(4-((3-chloro-2-fluorophenyl)amino)-7-(((1R,5S)-3-methyl-3-azabicyclo[3.1.0]hexan-1-yl)ethynyl)quinazolin-6-yl)-4-methoxybut-2-enamide] | ≤ 50 nM | 100 to 500 nM | 100 to 500 nM | > 500 nM
15 | C=CC(=O)Nc1cc2c(Nc3ccc(OCc4ccccn4)c(Cl)c3)ncnc2cc1C#C[C@@]1(C)CCCN1C [Compound 16, (R)—N-(4-((3-chloro-4-(pyridin-2-ylmethoxy)phenyl)amino)-7-((1,2-dimethylpyrrolidin-2-yl)ethynyl)quinazolin-6-yl)acrylamide] | > 500 nM | 50 to 100 nM | ≤ 50 nM | 100 to 500 nM
16 | C=CC(=O)Nc1cc2c(Nc3ccc(Cl)c(Cl)c3F)ncnc2cc1C#CC1(C)CCN(C)C1 (stereo not shown) [Compound 7, N-(4-((3,4-dichloro-2-fluorophenyl)amino)-7-((1,3-dimethylpyrrolidin-3-yl)ethynyl)quinazolin-6-yl)acrylamide] | ≤ 50 nM | ≤ 50 nM | 50 to 100 nM | 100 to 500 nM
17 | C=CC(=O)Nc1cc2c(Nc3cccc(Cl)c3F)ncnc2cc1C#CC1CCN(C)C1 (stereo not shown) [Compound 77, N-(4-((3-chloro-2-fluorophenyl)amino)-7-((1-methylpyrrolidin-3-yl)ethynyl)quinazolin-6-yl)acrylamide] | ≤ 50 nM | ≤ 50 nM | ≤ 50 nM | 100 to 500 nM
18 | C=CC(=O)Nc1cc2c(Nc3cccc(Cl)c3F)ncnc2cc1C#CC1(C)CCCN(C)C1 (stereo not shown) [Compound 66, N-(4-((3-chloro-2-fluorophenyl)amino)-7-((1,3-dimethylpiperidin-3-yl)ethynyl)quinazolin-6-yl)acrylamide] | > 500 nM | ≤ 50 nM | 100 to 500 nM | > 500 nM
19 | C=CC(=O)Nc1cc2c(Nc3cccc(Cl)c3F)ncnc2cc1C#C[C@]12C[C@H]1CN(C1COC1)C2 [Compound 48, N-(4-((3-chloro-2-fluorophenyl)amino)-7-(((1S,5R)-3-(oxetan-3-yl)-3-azabicyclo[3.1.0]hexan-1-yl)ethynyl)quinazolin-6-yl)acrylamide] | 100 to 500 nM | 100 to 500 nM | 100 to 500 nM | > 500 nM
